According to patent US20250230193A1, “CYCLIC COMPOUND HAVING SELECTIVE KRAS INHIBITORY EFFECT ON HRAS AND NRAS” (CHUGAI SEIYAKU KABUSHIKI KAISHA, priority 2022, published 2025):
Where a SMILES comes first, the peptide text is derived from it. Bridges are numbered along the chain shown (N, C = ends). [ ]: non-standard residue; d: D form. The star is where a group is joined. hPhe(3-Cl-4-CF3) = N[C@@H](CCc1ccc(C(F)(F)F)c(Cl)c1)C(=O)O; NEtPhe(4-Me) = CCN[C@@H](Cc1ccc(C)cc1)C(=O)O; NMePhe(4-Me) = CN[C@@H](Cc1ccc(C)cc1)C(=O)O; NMeGly(cPent) = CN[C@H](C(=O)O)C1CCCC1; Hyp = O=C(O)[C@@H]1C[C@@H](O)CN1; NMeD = CN[C@@H](CC(=O)O)C(=O)O; NMeL = CN[C@@H](CC(C)C)C(=O)O; Morpholide = C1CN(*)CCO1; NMeA = CN[C@@H](C)C(=O)O; Ac5c = NC1(C(=O)O)CCCC1; Aze = O=C(O)[C@@H]1CCN1; Sar = CNCC(=O)O

Assays:
[1] = biological target: GDP-bound HRAS wild-type protein (Homo sapiens, UniProt P01112); assay: Binding to HRAS by surface plasmon resonance (SPR), Single Cycle Kinetics; conditions: for HRAS/KRAS (ratio of KD value with respect to GDP-bound HRAS wild-type protein to KD value with respect to KRAS): class symbols
[2] = biological target: GDP-bound NRAS wild-type protein (Homo sapiens, UniProt P01111); assay: Binding to NRAS by surface plasmon resonance (SPR), Single Cycle Kinetics; conditions: for NRAS/KRAS (ratio of KD value with respect to GDP-bound NRAS wild-type protein to KD value with respect to KRAS): class symbols
[3] = KD ratio, GDP-bound HRAS wild-type vs GDP-bound KRAS wild-type, SPR
[4] = KD ratio, GDP-bound NRAS wild-type vs GDP-bound KRAS wild-type, SPR
[5] = SPR, GDP-bound HRAS wild-type vs GDP-bound KRAS wild-type
[6] = SPR, GDP-bound NRAS wild-type vs GDP-bound KRAS wild-type

Chain of GDP-bound NRAS wild-type protein (P01111 whole entry): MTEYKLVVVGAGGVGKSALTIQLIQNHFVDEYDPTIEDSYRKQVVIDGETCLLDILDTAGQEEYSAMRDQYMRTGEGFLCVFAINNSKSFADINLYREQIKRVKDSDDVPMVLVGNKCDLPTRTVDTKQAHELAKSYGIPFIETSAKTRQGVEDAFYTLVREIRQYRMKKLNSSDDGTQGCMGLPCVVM
Chain of GDP-bound HRAS wild-type protein (P01112 whole entry): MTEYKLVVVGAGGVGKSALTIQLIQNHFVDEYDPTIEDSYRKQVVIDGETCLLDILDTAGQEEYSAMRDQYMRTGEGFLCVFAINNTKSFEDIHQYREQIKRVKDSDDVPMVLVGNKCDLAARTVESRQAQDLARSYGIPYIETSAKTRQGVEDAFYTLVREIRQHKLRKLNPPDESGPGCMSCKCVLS

CCO[C@@H]1C[C@H]2C(=O)NC3(CCCC3)C(=O)N(C)[C@@H](C3CCCC3)C(=O)N(C)[C@H](C(=O)N3CCOCC3)CC(=O)N(C)[C@@H](CC(C)C)C(=O)N[C@@H]([C@@H](C)CC)C(=O)N(C)[C@@H](C)C(=O)N3CC[C@H]3C(=O)N(CC)[C@@H](Cc3ccc(C)cc3)C(=O)N(C)CC(=O)N[C@@H](CCc3ccc(C(F)(F)F)c(Cl)c3)C(=O)N2C1 [PP0014] ([NMeL]I[NMeA][Aze][NEtPhe(4-Me)][Sar][hPhe(3-Cl-4-CF3)][Hyp](Et)[Ac5c][NMeGly(cPent)][NMeD]-Morpholide; lactam N-11)
HRAS/KRAS (ratio of KD for GDP-bound HRAS wild-type to KD for KRAS) ([1]; SPR): C (A compound having a KD ratio of 0.1 or more and less than 3 is denoted as C) | NRAS/KRAS (ratio of KD for GDP-bound NRAS wild-type to KD for KRAS) ([2]; SPR): C (A compound having a KD ratio of 0.1 or more and less than 3 is denoted as C)

CCO[C@@H]1C[C@H]2C(=O)NC3(CCC3)C(=O)N(C)[C@@H](C3CCCC3)C(=O)N(C)[C@H](C(=O)N3CCOCC3)CC(=O)N(C)[C@@H](Cc3cscn3)C(=O)N[C@@H]([C@@H](C)CC)C(=O)N(C)CC(=O)N(C)[C@H]3CCCCCN(C3=O)[C@@H](Cc3ccc(C(F)(F)F)cc3)C(=O)N(C)CC(=O)N[C@@H](CCc3cc(F)c(C(F)(F)F)c(F)c3)C(=O)N2C1 [PP0855]
HRAS/KRAS (ratio of KD value with respect to HRAS to KD value with respect to KRAS) [1, 3]: B (a compound having 3 or more and less than 10 is denoted as B) | NRAS/KRAS (ratio of KD value with respect to NRAS to KD value with respect to KRAS) [2, 4]: B (a compound having 3 or more and less than 10 is denoted as B)

CCO[C@@H]1C[C@H]2C(=O)NC3(CC(C)(C)C3)C(=O)N(C)[C@@H](C(CC)CC)C(=O)N(C)[C@H](C(=O)N3CCCC3)CC(=O)N(C)[C@@H](COC)C(=O)N[C@@H]([C@@H](C)CC)C(=O)N(C)CC(=O)N(C)[C@H]3C/C=C\CCN(C3=O)[C@@H](Cc3ccc(C)cc3)C(=O)N(C)CC(=O)N[C@@H](CCc3ccc(C(F)(F)F)c(OC)c3)C(=O)N2C1 [PP2167]
HRAS/KRAS (ratio of KD value with respect to HRAS to KD value with respect to KRAS) [1, 5]: A (a compound having 10 or more and less than 20 is denoted as A) | NRAS/KRAS (ratio of KD value with respect to NRAS to KD value with respect to KRAS) [2, 6]: AA (a compound having 20 or more is denoted as AA)

CC[C@H](C)[C@@H]1NC(=O)[C@H](CC(C)C)N(C)C(=O)C[C@@H](C(=O)N2CCOCC2)N(C)C(=O)[C@H](C2CCCC2)N(C)C(=O)C2(CCC2)NC(=O)[C@@H]2[C@@H](OCC3CCCC3)CCN2C(=O)[C@H](CCc2cc(F)c(C(F)(F)F)c(F)c2)NC(=O)CN(C)C(=O)[C@H](Cc2ccc(C(F)(F)F)cc2)N2CCCCC[C@@H](C2=O)N(C)C(=O)CN(C)C1=O [PP1011]
HRAS/KRAS (ratio of KD value with respect to HRAS to KD value with respect to KRAS) [1, 3]: B (a compound having 3 or more and less than 10 is denoted as B) | NRAS/KRAS (ratio of KD value with respect to NRAS to KD value with respect to KRAS) [2, 4]: A (a compound having 10 or more and less than 20 is denoted as A)

CCC[C@H]1C(=O)N[C@@H]([C@@H](C)CC)C(=O)N(C)CC(=O)N(C)[C@H]2C/C=C\CCN(C2=O)[C@@H](Cc2ccc(C(F)(F)F)cc2)C(=O)N(C)CC(=O)N[C@@H](CCc2ccc3sc(C)c(C)c3c2)C(=O)N2C[C@H](OCC)C[C@H]2C(=O)NC2(CC(C)(C)C2)C(=O)N(C)[C@@H](C2CCCC2)C(=O)N(C)[C@H](C(=O)N(C)C)CC(=O)N1C [PP2889]
HRAS/KRAS (ratio of KD value with respect to GDP-bound HRAS wild-type protein to KD value with respect to KRAS) [1]: A (a compound having 10 or more and less than 20 is denoted as A) | NRAS/KRAS (ratio of KD value with respect to GDP-bound NRAS wild-type protein to KD value with respect to KRAS) [2]: A (a compound having 10 or more and less than 20 is denoted as A)

CC[C@H](C)[C@@H]1NC(=O)[C@H](CC(C)C)N(C)C(=O)C[C@@H](C(=O)N2CCOCC2)N(C)C(=O)[C@H](C2CCCC2)N(C)C(=O)C2(CCCC2)NC(=O)[C@@H]2CCCN2C(=O)[C@H](CCc2ccc(C(F)(F)F)c(Cl)c2)NC(=O)CN(C)C(=O)[C@H](Cc2ccc(C)cc2)N(C)C(=O)[C@@H]2CCN2C(=O)[C@H](C)N(C)C1=O [PP0001] ([NMeL]I[NMeA][Aze][NMePhe(4-Me)][Sar][hPhe(3-Cl-4-CF3)]P[Ac5c][NMeGly(cPent)][NMeD]-Morpholide; lactam N-11)
HRAS/KRAS (ratio of KD for GDP-bound HRAS wild-type to KD for KRAS) ([1]; SPR): C (A compound having a KD ratio of 0.1 or more and less than 3 is denoted as C) | NRAS/KRAS (ratio of KD for GDP-bound NRAS wild-type to KD for KRAS) ([2]; SPR): C (A compound having a KD ratio of 0.1 or more and less than 3 is denoted as C)

CCC[C@H]1C(=O)N[C@@H]([C@@H](C)CC)C(=O)N(C)CC(=O)N(C)[C@H]2C/C=C\CCN(C2=O)[C@@H](Cc2ccc(C(F)(F)F)cc2)C(=O)N(C)CC(=O)N[C@@H](CCc2ccc(C(F)(F)F)c(Cl)c2)C(=O)N2CCCCC[C@H]2C(=O)NC2(CC(C)(C)C2)C(=O)N(C)[C@@H](C(CC)CC)C(=O)N(C)[C@H](C(=O)N(C)C)CC(=O)N1C [PP2964]
HRAS/KRAS (ratio of KD value with respect to GDP-bound HRAS wild-type protein to KD value with respect to KRAS) [1]: A (a compound having 10 or more and less than 20 is denoted as A) | NRAS/KRAS (ratio of KD value with respect to GDP-bound NRAS wild-type protein to KD value with respect to KRAS) [2]: AA (a compound having 20 or more is denoted as AA)

CC[C@H](C)[C@@H]1NC(=O)[C@H](CC(F)F)N(C)C(=O)C[C@@H](C(=O)N(C)CC)N(C)C(=O)[C@H](C2CCCC2)N(C)C(=O)C2(CC(C)(C)C2)NC(=O)[C@@H]2C[C@H](C)CN2C(=O)[C@H](CCc2ccc(C(F)(F)F)c(Cl)c2)NC(=O)CN(C)C(=O)[C@H](Cc2ccc(C)cc2)N2CC/C=C\C[C@@H](C2=O)N(C)C(=O)CN(C)C1=O [PP1911]
HRAS/KRAS (ratio of KD value for HRAS to KD value for KRAS) [1, 3]: A (a compound having 10 or more and less than 20 is denoted as A) | NRAS/KRAS (ratio of KD value for NRAS to KD value for KRAS) [2, 4]: A (a compound having 10 or more and less than 20 is denoted as A)

CCO[C@@H]1C[C@H]2C(=O)NC3(CC(C)(C)C3)C(=O)N(C)[C@@H](C(CC)CC)C(=O)N(C)[C@H](C(=O)N(C)C)CC(=O)N(C)[C@@H](C(C)C)C(=O)N[C@@H]([C@@H](C)CC)C(=O)N(C)CC(=O)N(C)[C@H]3C/C=C\CCN(C3=O)[C@@H](CC3CCC(F)(F)CC3)C(=O)N(C)CC(=O)N[C@@H](CCc3ccc(C(F)(F)F)c(Cl)c3)C(=O)N2C1 [PP2492]
HRAS/KRAS (ratio of KD value with respect to HRAS to KD value with respect to KRAS) [1, 5]: A (a compound having 10 or more and less than 20 is denoted as A) | NRAS/KRAS (ratio of KD value with respect to NRAS to KD value with respect to KRAS) [2, 6]: AA (a compound having 20 or more is denoted as AA)

CCC[C@H]1C(=O)N[C@@H]([C@@H](C)CC)C(=O)N(C)CC(=O)N(C)[C@H]2C/C=C\CCN(C2=O)[C@@H](Cc2ccc(C(F)(F)F)cc2)C(=O)N(C)CC(=O)N[C@@H](CCc2ccc(Cl)c(Cl)c2)C(=O)N2C[C@H](OCC)C[C@H]2C(=O)NC2(CC(C)(C)C2)C(=O)N(C)[C@@H](C(CC)CC)C(=O)N(C)[C@H](C(=O)N(C)C)CC(=O)N1C [PP2175]
HRAS/KRAS (ratio of KD value with respect to HRAS to KD value with respect to KRAS) [1, 5]: A (a compound having 10 or more and less than 20 is denoted as A) | NRAS/KRAS (ratio of KD value with respect to NRAS to KD value with respect to KRAS) [2, 6]: AA (a compound having 20 or more is denoted as AA)

CCC[C@H]1C(=O)N[C@@H]([C@@H](C)CC)C(=O)N(C)CC(=O)N(C)[C@H]2C/C=C\CCN(C2=O)[C@@H](Cc2ccc(C)cc2)C(=O)N(C)CC(=O)N[C@@H](CCc2ccc(Cl)c(Cl)c2)C(=O)N2C[C@H](OC3CCC3)C[C@H]2C(=O)NC2(CC(C)(C)C2)C(=O)N(C)[C@@H](C(CC)CC)C(=O)N(C)[C@H](C(=O)N(C)C)CC(=O)N1C [PP2644]
HRAS/KRAS (ratio of KD value with respect to GDP-bound HRAS wild-type protein to KD value with respect to KRAS) [1]: A (a compound having 10 or more and less than 20 is denoted as A) | NRAS/KRAS (ratio of KD value with respect to GDP-bound NRAS wild-type protein to KD value with respect to KRAS) [2]: AA (a compound having 20 or more is denoted as AA)
